# In patent publication US5227163A, “Lice-repellant compositions” (priority 1992, dated 1993):
# Where “and” joins values, the source holds several entries; their conditions need not be identical. Equal entries are not always repeated.
# What was measured:
# human body lice [1] = test: In vivo test of lice repellency on rabbits (spray, gel, de cologne); design: species or system Pediculus humanus humanus (on New Zealand white rabbits); conditions: 7 hours
# human body lice [2] = test: as above; design: species or system Pediculus humanus humanus (on New Zealand white rabbits); conditions: for % Repellency (Mean Values): Table 3; for Number of Lice (Out of 40) Found in the Treated Area: single experiments (a), (b), (c), listed as D.M.P.
# Procedure: (§1) Body lice were reared in the laboratory by feeding them every 48 hours on rabbits. Lice were placed on the shaved abdomen of a white rabbit and left until they fed to satiety. Outside the host the lice were maintained at a temperature of 30 ±1° C., and relative humidity of 70±10%.
# (§2) The abdomen of a New Zealand white rabbit was shaved and 100 μl of the test substance was evenly distributed over an area 2.5×5 cm. A glass cylinder 5 cm high with an internal diameter of 3.5 cm was placed on the rabbit's abdomen so that one half of it was covering the treated area and the other half the adjacent untreated area. 40 human body lice (Pediculus humanus humanus) (20 adults and 20 nymphs) which had been fed 24 hours previously were placed in the middle of the cylinder between the treated and untreated area, and the cylinder was covered with a dark cloth in order to keep the test area in the dark. The lice remained on the body of the rabbit for 5 minutes during which time over 95% of them had started feeding. The number of lice found on the treated area was then recorded and the specimen was photographed. Room temperature during the test was 20±3° C. For comparison to the tested samples, two controls were also tested: 70% Ethanol (Frutarom, C. P.) and 33% Dimethyl Phthalate (in 70% Ethanol).
# The products were topically applied as a spray, lotion or gel on human hair and skin, to repel lice. The above procedure was carried out 1, 3, 5, and 24 hours after application of a test substance. Each substance was tested three times on three different rabbits on three different occasions.
# (§3) % Repellency was calculated according to equation 1.
# Where: A = Total Number of lice
# n = Mean number of lice found in the treated area
# (§4) According to Equation 1, when lice are evenly distributed between the treated and untreated areas (n=1/2 A), % Repellency=0, and when no lice are left in the treated area (n=0), % Repellency=100.
# human lice = test: In vivo lice repellency on rabbits of shampoo and conditioner; design: species or system human lice (on rabbits); conditions: for % Repellency (Mean Values): Table 5; for Number of Lice (Out of 40) Found in the Treated Area: three experiments, listed as D.M.P.
# Procedure: as §1
# as §2, with “Ethanol). […]” for “Ethanol).”
# The efficacy of a shampoo and a hair-conditioner, aimed at repellency of human lice was examined in an in vivo procedure on rabbits. Each experiment included a terpenoid containing product and four controls: 70% Ethanol, Dimethyl phthalate, placebo shampoo and placebo conditioner. All experiments were repeated three times, and the results were consistent, as shown by Table 4.
# as §3, §4
# lice = test: Standard in vitro test on filter paper (petri-dish lice repellency); conditions: 10 min, 20±3° C.
# Procedure: Screening tests were performed on many substances of the following groups: terpenes (hydrocarbons), terpenoid alcohols, terpenoid esters, terpenoid aldehydes and ketones, essential oils which contain terpenoids and perfumes which contain terpenoids, as well as various general insect repellents, for lice-repellency. Each experiment included exposure of the lice to different concentrations of the tested substance, and measuring the dose response of those materials.
# A petri-dish method was used to examine the repellency of the solutions for lice. A filter paper (Whatman No. 4, 5.5 cm in diameter) was secured in a petri-dish. A 100 μl portion of the test solution was placed on a corduroy patch (1.5 cm^2). The material was allowed to dry for 30 min. at room temperature (20±3° C.) and the patch was placed at the periphery of the petri-dish. A patch treated with a control solution (96% Ethanol) was placed on the opposite side of the dish. Twenty female lice which had been fed 24 hours previously were placed in the middle of the dish. A box was placed over the dish and it was covered with a dark cloth in order to keep the test area in the dark. The experiment was carried out at room temperature (20°±3° C.) and lasted 10 min. The number of lice on the treated and controlled patches as well as on the area between the patches was recorded in a protocol. The experiment was repeated three times for each sample.
# % repellency was calculated by the following formula:
# where: T=number of lice on the treated patch
# C=number of lice on the untreated patch
# The following terms were recorded:
# RC80 =Concentration giving 80% repellency.
# RC50 =Concentration giving 50% repellency.
# RD80 =mg/cm^2 giving 80% repellency.
# RD50 =mg/cm^2 giving 50% repellency.
# mosquito = conditions: Hwang et al. 1985; Ruledge 1988; cited from earlier work
Molecule,RC50 (Concentration giving 50% repellency) (lice),RC80 (Concentration giving 80% repellency) (lice),RD80 (mg/cm^2 giving 80% repellency) (lice),further results
COC(=O)c1ccccc1C(=O)OC [Dimethyl Phthalate],,,,"% Repellency (Mean Values) (human body lice [1]; Table 3): 26%; Number of Lice (Out of 40) Found in the Treated Area (human body lice [1]; single experiments (a), (b), (c), listed as D.M.P.): 18 and 14 and 12; % Repellency (Mean Values) (human body lice [2]; 1 hour): 20%; Number of Lice (Out of 40) Found in the Treated Area (human body lice [2]; 1 hour): 21 and 12 and 15; % Repellency (Mean Values) (human body lice [2]; 3 hours): 10%; Number of Lice (Out of 40) Found in the Treated Area (human body lice [2]; 3 hours): 16 and 18 and 20; % Repellency (Mean Values) (human body lice [2]; 5 hours): 20%; Number of Lice (Out of 40) Found in the Treated Area (human body lice [2]; 5 hours): 16 and 14 and 18; lice repellency in vivo, in words (human body lice [2]; rabbit, in vivo): poor results; repellency against lice over the duration stated (human body lice [2]; range over at least 5 or 7 hours): 10-25%; % Repellency (Mean Values) (human lice; 1 hour): 20%; Number of Lice (Out of 40) Found in the Treated Area (human lice; 1 hour): 21 and 12 and 15; % Repellency (Mean Values) (human lice; 3 hours): 10%; Number of Lice (Out of 40) Found in the Treated Area (human lice; 3 hours): 16 and 18 and 20; Number of Lice (Out of 40) Found in the Treated Area (human lice; 4 hours): 16 and 14 and 18; % Repellency (Mean Values) (human lice; 5 hours): 20%; % Repellency (Mean Values) (human lice; 7 hours): 26%; Number of Lice (Out of 40) Found in the Treated Area (human lice; 7 hours): 18 and 14 and 12"
"CC1C(O)CC2CC1C2(C)C (stereo not shown) [ISOPINO-CAMPHEOL, iso-pinocampheol]",0.200%,0.300%,0.210 mg/cm^2,RD50 (mg/cm^2 giving 50% repellency) (lice): 0.140 mg/cm^2
"C=C(C)[C@@H]1CC[C@@H](C)C[C@H]1O [ISOPULEGOL, isopulegol]",0.500%,0.800%,0.560 mg/cm^2,
"C=CC(C)(O)CCC=C(C)C (stereo not shown) [LINALOOL, linalool]",0.020%,0.080%,0.056 mg/cm^2,
"CC1CCC(C(C)C)C(O)C1 (stereo not shown) [MENTHOL, menthol]",0.030%,0.150%,0.105 mg/cm^2,
"CC1CCC(C(C)C)C(OC(=O)C(C)O)C1 (stereo not shown) [MENTHYL LACTATE, menthyl lactate]",0.050%,0.100%,0.070 mg/cm^2,
"CC1(C)C2CC=C(CO)C1C2 (stereo not shown) [MYRTENOL, myrtenol]",0.500%,0.900%,0.630 mg/cm^2,RD50 (mg/cm^2 giving 50% repellency) (lice): 0.350 mg/cm^2
"CC(C)=CCC/C(C)=C\CO [NEROL, nerol]",0.500%,0.800%,0.560 mg/cm^2,
"C=C(C)[C@@H]1CC=C(CO)CC1 [PERILLIL ALCOHOL, perillyl alcohol]",0.010%,0.030%,0.020 mg/cm^2,
CC(C)=C1CC[C@@H](C)CC1=O [PULEGONE],0.400%,0.700%,0.490 mg/cm^2,
CC1=CCC(O)(C(C)C)CC1 (stereo not shown) [terpinen-4-ol],0.020%,0.090%,0.063 mg/cm^2,
"CC1=CCC(C(C)(C)O)CC1 (stereo not drawn) [α-TERPINEOL, α-terpineol]",0.040%,0.080%,0.056 mg/cm^2,"mosquito repellency, in words (mosquito): useful in mosquito repellent"
C=C1CCC2CC1C2(C)C (stereo not drawn) [β PINENE],0.200%,1.100%,0.770 mg/cm^2,
"CC(C)=CCCC(C)CCO (stereo not drawn) [β-CITRONELLOL, β-citronellol]",0.020%,0.070%,0.049 mg/cm^2,
IONONE,0.250%,0.600%,0.420 mg/cm^2,RD50 (mg/cm^2 giving 50% repellency) (lice): 0.170 mg/cm^2
